Test results: US8211854B2, “Methods for inhibiting protein kinases” (Schering Corporation, priority 2005, dated 2012)
Like-named read-outs stand apart in the source and are kept apart here.

Target: T1, His-CHK1 (Homo sapiens, UniProt O14757)
T1 construct: fused on or other part: His tag
T1 sequence (O14757 1-265 limits assumed): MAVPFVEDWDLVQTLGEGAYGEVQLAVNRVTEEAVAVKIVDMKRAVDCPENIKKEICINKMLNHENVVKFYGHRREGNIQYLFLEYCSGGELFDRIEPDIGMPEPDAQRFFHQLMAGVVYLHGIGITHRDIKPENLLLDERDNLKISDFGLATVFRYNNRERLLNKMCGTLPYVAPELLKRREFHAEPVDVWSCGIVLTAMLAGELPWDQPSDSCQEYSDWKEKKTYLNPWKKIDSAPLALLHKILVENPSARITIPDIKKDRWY
Assay: CHK1 SPA Assay
Format: biochemical

[1] = recombinant His-CHK1, biotinylated CDC25C peptide substrate, 1 μM ATP, 2 hours at room temperature, read-out: CHK1 inhibitory activity (IC50)
[2] = read-out: CHK1 inhibitory activity (IC50)

IC50 [1] [nM]	SMILES	other results
	Cn1cc(-c2cnn3c(N)c(I)c(C4CCCNC4)nc23)cn1 (stereo not drawn)	IC50 [2]: 3 nM
4	N#Cc1cc(-c2cnn3c(N)c(Br)c(C4CCCNC4)nc23)co1 (stereo not drawn)	
430	Nc1c(Br)c(N2CC[C@H](N)C2)nc2c(-c3ccsc3)cnn12	
11	Cn1cc(-c2cnn3c(N)c(Br)c(CCCN)nc23)cn1	
	Cn1cc(-c2cnn3c(N)c(Br)c(CC4CCCNC4)nc23)cn1 (stereo not drawn)	IC50: 9 nM
400	Cn1cc(-c2cnn3c(N)cc(CC4CCNCC4)nc23)cn1	
120	N#Cc1ccc(-c2cnn3c(N)cc(C4CCCNC4)nc23)cc1 (stereo not drawn)	
	CC#Cc1c(C2CCCNC2)nc2c(-c3cnn(C)c3)cnn2c1N (stereo not drawn)	IC50 [2]: 45 nM
60	Cn1cc(-c2cnn3c(Nc4ccc(-n5ccnc5)cc4)cc(C4CCCNC4)nc23)cn1 (stereo not drawn)	
250	CN(C)c1cccc(Nc2cc(C3CCCNC3)nc3c(-c4cnn(C)c4)cnn23)c1 (stereo not drawn)	
390	Cn1cc(-c2cnn3c(Nc4cccc(S(N)(=O)=O)c4)cc(C4CCCNC4)nc23)cn1 (stereo not drawn)	
	Cc1cc(Nc2cc(C3CCCNC3)nc3c(-c4cnn(C)c4)cnn23)sn1 (stereo not drawn)	IC50: 7 nM
100	Cn1cc(-c2cnn3c(Nc4ccncc4)cc(C4CCCNC4)nc23)cn1 (stereo not drawn)	
7	Cc1cc(Nc2cc(C3CCCNC3)nc3c(-c4coc(C#N)c4)cnn23)sn1 (stereo not drawn)	
50	Cc1cc(Nc2cc(N3CC[C@@H](N)C3)nc3c(-c4cnn(C)c4)cnn23)sn1	

SMILES	IC50 [1] [nM]	other results
Nc1c(Br)c(C2CCCNC2)nc2c(-c3ccoc3)cnn12 (stereo not drawn)	25	
Cn1cc(-c2cnn3c(N)c(Br)c(C4CNCCS4)nc23)cn1 (stereo not drawn)	6	
Cn1cc(-c2cnn3c(N)c(-c4cccs4)c(C4CCCNC4)nc23)cn1 (stereo not drawn)	90	
